Consider 25 compounds from US8198307B2, “Imidazole derivatives having aryl piperidine substituent, method for preparation thereof and pharmaceutical compositions containing same” (Korea Research Institute of Chemical Technology, priority 2007, dated 2012).

T1 sequence (Q99705 whole entry, species assumed): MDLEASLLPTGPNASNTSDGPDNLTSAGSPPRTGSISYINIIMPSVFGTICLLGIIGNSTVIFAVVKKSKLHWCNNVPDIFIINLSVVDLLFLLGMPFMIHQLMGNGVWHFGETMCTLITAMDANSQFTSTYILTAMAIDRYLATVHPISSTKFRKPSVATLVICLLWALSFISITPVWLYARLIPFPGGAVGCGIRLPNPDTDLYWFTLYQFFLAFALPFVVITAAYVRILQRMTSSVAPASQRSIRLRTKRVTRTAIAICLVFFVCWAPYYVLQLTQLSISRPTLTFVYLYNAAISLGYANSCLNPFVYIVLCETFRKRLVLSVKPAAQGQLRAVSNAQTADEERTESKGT

One experiment addresses T1, MCH R1 (melanine-concentrating hormone receptor-1) (Homo sapiens, UniProt Q99705).
T1 construct: purchased Euroscreen, Gosselies, Belgium
The experiment can be described thus: Inhibitory effects on MCH R1 binding (Eu-MCH time-resolved fluorescence binding assay).
Conditions: not given
As to the method:
First, MCH R1 (melanine-concentrating hormone receptor-1; Euroscreen, Gosselies, Belgium), 1 μM Europium-labeled melanine-concentrating hormone (Eu-MCH, PerkinElmer, Turku, Finland) and 1 mM melanine-concentrating hormone (MCH, #070-47, Phoenix, Belmont Calif., USA) were kept at 4° C. for ready use. 1 μM Eu-MCH and 1 mM MCH were diluted with an experimental solution (25 mM HEPES pH 7.4, 5 mM MgCl2, 1 mM CaCl2 and 0.5% (w/w) BSA) to 8 nM (final reaction concentration: 2 nM) and 2 μM (final reaction concentration: 0.5 μM), respectively. The compounds prepared in the Examples (“Test compounds”) were dissolved in the experimental solution in concentration of 4 nM to 40 μM (final reaction concentration: 1 nM to 10 μM). MCH R1 (200 assays/vial) was homogeneously dispersed in the experimental solution.
Then, 100 μl/well of the following reaction mixture was added to the wells of a microplate (Multiwell 96 well filter plates PN5020, Pall Co., Ann Arbor, Mich., USA) equipped with a filter paper, with an 8-channel pipette (multi 8-channel, Eppendorf, Hamburg, Germany). Specifically, to the wells of a non-specific binding control group, 25 μl of Eu-MCH, 50 μl of MCH R1 and 25 μl of MCH were added. Further, 25 μl of the experimental solution supplemented with 10% (w/w) of DMSO, 25 μl of Eu-MCH and 50 μl of MCH R1 were added to the wells of a total binding control group, while 25 μl of the test compounds, 25 μl Eu-MCH and 50 μl of MCH R1 were added to the wells of an experimental group. Subsequently, the microplate was shaken gently for 15 seconds and kept at room temperature for 90 minutes to allow the reaction to take place. Then, the plate was washed with a microplate washer (EMBLA, Molecular Devices) by washing three times with 300 μl of a washing solution (25 mM HEPES pH 7.4, 5 mM MgCl2, 1 mM CaCl2) to remove the residual unreacted Eu-MCH. Moisture was removed from the bottom of the wells and 150 μl of dissociation solution (DELFIA Enhancement solution, PerkinElmer, Turku, Finland) was added to each well, followed by keeping the plate at room temperature for 2 to 4 hours. Subsequently, time-resolved fluorescence (TRF) values were measured with a multilabel counter (Victor2, PerkinElmer, Turku, Finland) (emission wave length: 615 nm, excitation wave length: 340 nm). The inhibition rate based on the time-resolved fluorescence data was calculated using the following Equation (I). Inhibition rate of time-resolved fluorescence (%)=[(Average TRF value of the total binding group−Time-resolved fluorescence value of the test compound)/(Average TRF value of the total binding group−Average TRF value of the non-specific binding group)]×100 (I)
Take `CC(=O)Nc1cccc(C2CCN(CCCn3c(-c4ccc(Cl)cc4)nc4cc([N+](=O)[O-])ccc43)CC2)c1` [Example 85, 2-(4-chlorophenyl)-1-{3-[4-(3-acetylaminophenyl)piperidin-1-yl]propyl}-5-nitro-1H-benzimidazole]: the IC50 came out at 70 nM. The same measure, in the same setting: in the case of `CC(=O)Nc1cccc(C2CCN(CCCn3c(-c4ccc(Cl)cc4)nc4ccc([N+](=O)[O-])cc43)CC2)c1` [Example 42, 2-(4-chlorophenyl)-1-{3-[4-(3-acetylaminophenyl)piperidin-1-yl]propyl}-6-nitro-1H-benzimidazole] it was 111 nM.

Still in this experiment, the particulars now being: concentration inhibiting the binding of MCH (Eu-MCH, 2 nM) to MCH R1 by 50% in vitro; TRF readout; test range 1 nM to 10 μM; read-out: IC50.
Take `CC(=O)Nc1cccc(C2CCN(CCCn3c(C)nc4ccc(C)nc43)CC2)c1` [Example 91, 2,5-dimethyl-3-{3-[4-(3-acetylaminophenyl)piperidin-1-yl]propyl}-3H-imidazo[4,5-b]pyridine]: the half-inhibitory concentration (IC50) turned out to be 2800 nM. Same read-out and setting: in the case of `CC(=O)Nc1cccc(C2CCN(CCCn3c(-c4ccc(C)nc4)nc4ccccc43)CC2)c1` [Example 114, 2-(6-methylpyridin-3-yl)-1-{3-[4-(3-acetamidophenyl)piperidin-1-yl]propyl}-1H-benzimidazole] it was 42 nM.

Turning to `CC(=O)Nc1cccc(C2CCN(CCCn3c(-c4ccccc4Cl)nc4ccccc43)CC2)c1` [Example 9, 2-(2-chlorophenyl)-1-{3-[4-(3-acetylaminophenyl)piperidin-1-yl]propyl}-1H-benzimidazole], the IC50 is 10 nM. Still for that read-out and setting: the value for `CC(=O)Nc1cccc(C2CCN(CCCn3c(-c4ccccc4F)nc4ccccc43)CC2)c1` [Example 15, 2-(2-fluorophenyl)-1-{3-[4-(3-acetylaminophenyl)piperidin-1-yl]propyl}-1H-benzimidazole] was 10 nM; that for `CC(=O)Nc1cccc(C2CCN(CCCn3c(-c4ccc(Cl)cc4F)nc4cc(C)c(C)cc43)CC2)c1` [Example 59, 2-(4-chloro-2-fluorophenyl)-1-{3-[4-(3-acetylaminophenyl)piperidin-1-yl]propyl}-5,6-dimethyl-1H-benzimidazole] was 239 nM; that for `CC(=O)Nc1cccc(C2CCN(CCCn3c(-c4cccnc4)nc4cc([N+](=O)[O-])ccc43)CC2)c1` [Example 117, 5-nitro-2-(pyridin-3-yl)-1-{3-[4-(3-acetamidophenyl)piperidin-1-yl]propyl}-1H-benzimidazole] was 3 nM. Still for that read-out and setting: the value for `CC(=O)Nc1cccc(C2CCN(CCCn3c(-c4cccc(Br)c4)nc4ccccc43)CC2)c1` [Example 13, 2-(3-bromophenyl)-1-{3-[4-(3-acetylaminophenyl)piperidin-1-yl]propyl}-1H-benzimidazole] was 1 nM; that for `CC(=O)Nc1cccc(C2CCN(CCCn3c(C)nc4ccccc43)CC2)c1` [Example 88, 2-methyl-1-{3-[4-(3-acetylaminophenyl)piperidin-1-yl]propyl}-1H-benzimidazole] was more than 10000 nM; that for `CC(=O)Nc1cccc(C2CCN(CCCn3c(-c4ccc(Cl)cc4)nc4c(C)c(C)ccc43)CC2)c1` [Example 39, 2-(4-chlorophenyl)-1-{3-[4-(3-acetylaminophenyl)piperidin-1-yl]propyl}-4,5-dimethyl-1H-benzimidazole] was 7 nM.

For `CCCCc1nc2cc(-c3ccccn3)c(C)nc2n1CCCN1CCC(c2cccc(NC(=O)C(C)C)c2)CC1` [Example 101, 2-butyl-5-methyl-6-pyridin-2-yl-3-{3-[4-(3-isobutyrylaminophenyl)piperidin-1-yl]propyl}-3H-imidazo[4,5-b]pyridine], the IC50 was 40 nM. The same measure, in the same setting: in the case of `CC(=O)Nc1cccc(C2CCN(CCCn3c(-c4cccc(Cl)c4)nc4ccccc43)CC2)c1` [Example 10, 2-(3-chlorophenyl)-1-{3-[4-(3-acetylaminophenyl)piperidin-1-yl]propyl}-1H-benzimidazole] it was 5 nM. The same measure, in the same setting: in the case of `CC(=O)Nc1cccc(C2CCN(CCCn3c(-c4ccc(Cl)cc4Cl)nc4ccccc43)CC2)c1` [Example 16, 2-(2,4-dichlorophenyl)-1-{3-[4-(3-acetylaminophenyl)piperidin-1-yl]propyl}-1H-benzimidazole] it was 3 nM; in that of `CC(=O)Nc1cccc(C2CCN(CCCn3c(-c4ccc(Cl)cc4)nc4cc(C#N)ccc43)CC2)c1` [Example 81, 2-(4-chlorophenyl)-1-{3-[4-(3-acetylaminophenyl)piperidin-1-yl]propyl}-5-cyano-1H-benzimidazole], 70 nM; in that of `CC(=O)Nc1cccc(C2CCN(CCCn3c(-c4ccc(Cl)cc4F)nc4ccccc43)CC2)c1` [Example 53, 2-(4-chloro-2-fluorophenyl)-1-{3-[4-(3-acetylaminophenyl)piperidin-1-yl]propyl}-1H-benzimidazole], 1 nM. As to `CC(=O)Nc1cccc(C2CCN(CCCn3c(-c4cccs4)nc4ccccc43)CC2)c1` [Example 109, 2-(thiophen-2-yl)-1-{3-[4-(3-acetylaminophenyl)piperidin-1-yl]propyl}-1H-benzimidazole], the IC50 came out at 15 nM. On the same count and under the same terms, the value for `CC(=O)Nc1cccc(C2CCN(CCCn3c(-c4cccc([N+](=O)[O-])c4)nc4ccccc43)CC2)c1` [Example 55, 2-(3-nitrophenyl)-1-{3-[4-(3-acetylaminophenyl)piperidin-1-yl]propyl}-1H-benzimidazole] was 8 nM; that for `CC(=O)Nc1cccc(C2CCN(CCCn3c(-c4ccc(F)cc4)nc4ccccc43)CC2)c1` [Example 48, 2-(4-fluorophenyl)-1-{3-[4-(3-acetylaminophenyl)piperidin-1-yl]propyl}-1H-benzimidazole] was 56 nM.

Take `CC(=O)Nc1cccc(C2CCN(CCCn3c(-c4ccoc4)nc4ccccc43)CC2)c1` [Example 107, 2-(furan-3-yl)-1-{3-[4-(3-acetylaminophenyl)piperidin-1-yl]propyl}-1H-benzimidazole]: the IC50 amounted to 25 nM. Still for that read-out and setting: in the case of `CCCCc1nc2c(C)c(-c3ccccc3)c(C)nc2n1CCCN1CCC(c2cccc(NC(C)=O)c2)CC1` [Example 96, 2-butyl-5,7-dimethyl-6-phenyl-3-{3-[4-(3-acetylaminophenyl)piperidin-1-yl]propyl}-3H-imidazo[4,5-b]pyridine] it was 60 nM; in that of `CC(=O)Nc1cccc(C2CCN(CCCn3c(-c4ccc(C#N)cc4)nc4cc(C)c(C)cc43)CC2)c1` [Example 78, 2-(4-cyanophenyl)-1-{3-[4-(3-acetylaminophenyl)piperidin-1-yl]propyl}-5,6-dimethyl-1H-benzimidazole], 100 nM; in that of `CC(=O)Nc1cccc(C2CCN(CCCCn3c(-c4ccccc4)nc4ccccc43)CC2)c1` [Example 5, 2-phenyl-1-{4-[4-(3-acetylaminophenyl)piperidin-1-yl]butyl}-1H-benzimidazole], 29 nM.

In the case of `Cc1nc2ccccc2n1CCCN1CCC(c2cccc(NC(=O)C(C)C)c2)CC1` [Example 90, 2-methyl-1-{3-[4-(3-isobutyrylaminophenyl)piperidin-1-yl]propyl}-1H-benzimidazole], the IC50 worked out at 80 nM. The same measure, in the same setting: the value for `CC(=O)Nc1cccc(C2CCN(CCCn3c(-c4cccc(C#N)c4)nc4ccccc43)CC2)c1` [Example 52, 2-(3-cyanophenyl)-1-{3-[4-(3-acetylaminophenyl)piperidin-1-yl]propyl}-1H-benzimidazole] was 15 nM.
